Results taken from paper PMC7908975, “Antioxidant and Anti-Inflammatory Activity of Citrus Flavanones Mix and Its Stability after In Vitro Simulated Digestion” (Antioxidants, 2021).

How the values were obtained:
[1] = test system: IL-8 release in Caco-2 cells; test: IL-8 release, IL-1β stimulated Caco-2 transwell model; format: cell-based, human; details: 24 h
Experimental: (§1) Experiments were carried out on transwell models (CacoReady™, Readycell, Barcelona, Spain) consisting of Caco-2 cells (8.5 × 10^4 cells/cm^2, passage number 41–58) seeded on polyester microporous filters in 24-well HTS plates (6.5 mm diameter, 0.33 cm^2 area and 0.4 µm of pore size) (Corning Incorporated, Corning, NY, USA). Completed Dulbecco’s Modified Eagle Medium (DMEM), prepared according to Denaro et al., was added on the apical (0.3 mL) and basolateral side (0.9 mL) of the Transwell® insert. After 21 days of culture, Caco-2 cells were completely differentiated and polarized, such that their phenotype resembled the morphological and functional features of mature enterocytes lining the small intestine.
(§2) Before starting with the anti-inflammatory experiments, the monolayer integrity was checked by measuring the trans-epithelial electrical resistance (TEER) with a Millicell® ERS-2 V/ohmmeter (Merck Millipore, Darmstadt, Germany) equipped with STX 100C electrode (World Precision Instruments, Sarasota, FL, USA). Caco-2-plated filters with epithelial resistance ≥800 Ω/cm^2 were used.
(§3) The anti-inflammatory activity of FM and digested FM (DFM) was evaluated on Caco-2 transwell model, according to Tesoriere et al., with some modifications. Briefly, 1.4 mM FM (see Section 2.3) was diluted 140 times in completed DMEM, obtaining a 10 µM FM (DMSO < 0.1%). […]
(§4) IL-6 and IL-8 release were measured by high-sensitivity human ELISA kits (Cymax IL-6 YIF-LF-EK0260 and Cymax IL-8YIF-LF-EK0262, Ab Frontiers, Adipogen Corporation, 9853 Pacific Heights Blvd., Suite L San Diego, CA, USA) according to the manufacturer’s recommendations, whereas NO release was estimated according to Tesoriere et al. by Griess reaction. […] Absorbance was recorded at 550 nm using a microplate reader (Multiskan GO, Thermo Scientific, Waltham, MA, USA). Results were expressed as µM NO extrapolating the results by a reference standard curve of sodium nitrite (1.0–15 µM).

[2] = test system: NO release in Caco-2 cells; test: NO release (Griess reaction), IL-1β stimulated Caco-2 transwell model; format: cell-based, human; details: 24 h
Experimental: as §1, §2, §3, §4

[3] = test system: IL-6 release in Caco-2 cells; test: IL-6 release, IL-1β stimulated Caco-2 transwell model; format: cell-based, human; details: 24 h
Experimental: as §1, §2, §3, §4

[4] = In vitro simulated human gastric and duodenal digestion with LC-DAD-ESI-MS/MS quantification; format: in vitro ADME; details: with respect to starting FM 10 µM; for DFM (µM): flavanone in duodenal digested flavanones mix: after gastric 2 h plus duodenal 4 h digestion, 37 °C; for GFM (µM): flavanone in gastric digested flavanones mix: after gastric digestion 2 h, pH 2.5, 37 °C
Description: Based on the results of the preliminary antioxidant and anti-inflammatory screening (see Section 2.2), the most powerful flavanones (neohesperidin, hesperidin, neoeriocitrin, eriocitrin, and hesperetin) were selected in order to prepare a flavanones mix (FM), which was, at first instance, investigated by the same in vitro colorimetric assays (see Section 2.2) in order to evaluate its potency with respect to the single flavanones and to elucidate potential synergistic mechanisms. The following final concentration range of FM were used: FRAP (2.50–20 µM), ORAC (0.08–0.60 µM), TEAC (0.31–2.50 µM), DPPH (1.25–10 µM), ADA (5.0–40 µM), and APA (2.50–20 µM). After that, being the results of the preliminary antioxidant and anti-inflammatory screening of FM very promising, an appropriate concentration was chosen to proceed with the subsequent analyses. In particular, the FM was prepared on the assumption that digested sample, which would then be applied to the Caco-2 cells for the anti-inflammatory experiments, had to contain an equimolar concentration of the five most powerful flavanones (neohesperidin, hesperidin, neoeriocitrin, eriocitrin, and hesperetin) equal to 10 µM, which represents the mean efficacy concentration taking into account the IC50 values obtained in the preliminary antioxidant and anti-inflammatory screening of the FM. At this purpose, stock solutions (14 mM) of flavanones in DMSO were mixed and diluted 10-fold with Milli-Q water to obtain the 1.4 mM FM, which was used to carried out the in vitro simulated human digestion. In vitro gastric and duodenal digestion of FM was carried out according to Trombetta et al. with some modifications. FM solution (1.5 mL) (see Section 2.3), has been dissolved in 7.5 mL of simulated gastric solution containing 0.127 mM egg-phosphatidylcholine and adjusting the pH to 2.5, by 1 M HCl. Gastric pepsin and lipase (9000 U/mL and 60 U/mL, respectively) were added to the mixture starting the gastric digestion phase, which was protracted for 2 h at 37 °C, incubating under continuous stirring (170 rpm) by an Innova 4000 Benchtop Incubator Shaker (New Brunswick Scientific, Edison, NJ, USA). The gastric phase was stopped by the addition of 1M NaOH in order to reach a pH of 7.5, and 6 mL of the previous solution passed to the duodenal digestion phase. Duodenal solution was prepared by adding 2.10 mL of simulated bile solution (6.5 mM phosphatidylcholine, 4 mM cholesterol, 12.5 mM sodium taurocholate, and 12.5 mM sodium glycodeoxycholate) to 5.9 mL of simulated pancreatic juice containing pancreatic lipase (590 U/mL), colipase (3.2 µg/mL), trypsin (11 U/mL), α-chymotrypsin (24 U/mL), and α-amylase (300 U/mL). The duodenal mixture was incubated for 4 h under continuous stirring at 37 °C as described above. At the end, both gastric and duodenal digesta were immediately stored at −80 °C until the subsequent analyses. For quali-quantitative determination of flavanones, gastric and duodenal digesta were extracted with methanol (1:2, v/v) by mixing for 3 min. After that, samples were centrifuged at 12,000× g for 10 min, filtered by a 0.22 µm nylon syringe filter and injected into a liquid chromatograph equipped with a diode-array detector and mass spectrophotometer (LC-DAD-MS system, Agilent technologies, Santa Clara, CA, USA). The chromatographic separation was obtained using a reverse phase column Luna Omega PS C18 (150 × 2.1 mm, 5 µm; Phenomenex, Torrance, CA, USA) by using solvent A (formic acid 0.1% v/v) and solvent B (acetonitrile) as mobile phase according to the following elution gradient: 0 min, 0% B; 3–9 min, 3% B; 9–24 min, 12% B; 24–30 min, 20% B; 30–33 min, 33–43 30% B; 43–66 min 50% di B; 66–81 min 60% di B; 81–86 min 0% di B; 86–90 min 0% di B. […] UV–Vis spectra of flavanones were recorded (190–400 nm) and chromatograms were acquired at 292 nm, maximum flavanones absorption wavelength. […]

[5] = Trolox Equivalent Antioxidant Capacity (TEAC) assay
Experimental: TEAC assay was carried out according to Bazzicalupo et al.. […] Fifty microliters of each flavanone (2.0–64 µM) or trolox as reference compound (2.50–20 µM) were added to 1 mL of the TEAC reagent and incubated at RT in the dark for 6 min. The absorbance was recorded at 734 nm. Based on the results of the preliminary antioxidant and anti-inflammatory screening (see Section 2.2), the most powerful flavanones (neohesperidin, hesperidin, neoeriocitrin, eriocitrin, and hesperetin) were selected in order to prepare a flavanones mix (FM), which was, at first instance, investigated by the same in vitro colorimetric assays (see Section 2.2) in order to evaluate its potency with respect to the single flavanones and to elucidate potential synergistic mechanisms. The following final concentration range of FM were used: FRAP (2.50–20 µM), ORAC (0.08–0.60 µM), TEAC (0.31–2.50 µM), DPPH (1.25–10 µM), ADA (5.0–40 µM), and APA (2.50–20 µM). After that, being the results of the preliminary antioxidant and anti-inflammatory screening of FM very promising, an appropriate concentration was chosen to proceed with the subsequent analyses. […]

[6] = set-up: method as in PMID 19728713; details: as compounds of a bitter orange extract; cited from earlier work
trypsin = test: Anti-protease activity (APA), anti-tryptic activity; format: biochemical
Experimental: The anti-tryptic activity of sample was evaluated according to Smeriglio et al.. Briefly, 200 µL of each flavanone (6.25–140 µM) or diclofenac sodium as reference compound (10–80 µM) were added to 12 µL of trypsin (10 µg/mL) and 188 µL of 25 mM Tris-HCl buffer (pH 7.5). After that, 200 µL of 0.8% casein solution were added and samples incubated for 20 min at 37 °C in a water bath. After that, 400 µL of perchloric acid were added to stop the reaction. The cloudy suspension, due to the protein precipitation, was centrifuged at 3500× g for 10 min and the absorbance of the supernatant was recorded at 280 nm against a blank consisting of deionized water instead of sample. Based on the results of the preliminary antioxidant and anti-inflammatory screening (see Section 2.2), the most powerful flavanones (neohesperidin, hesperidin, neoeriocitrin, eriocitrin, and hesperetin) were selected in order to prepare a flavanones mix (FM), which was, at first instance, investigated by the same in vitro colorimetric assays (see Section 2.2) in order to evaluate its potency with respect to the single flavanones and to elucidate potential synergistic mechanisms. The following final concentration range of FM were used: FRAP (2.50–20 µM), ORAC (0.08–0.60 µM), TEAC (0.31–2.50 µM), DPPH (1.25–10 µM), ADA (5.0–40 µM), and APA (2.50–20 µM). […]

[7] = 10 µM co-treatment with IL-1β 25 ng/mL

| Molecule | DFM (µM): flavanone in duodenal digested flavanones mix [4] [µM] | GFM (µM): flavanone in gastric digested flavanones mix [4] [µM] | IC50 in comparison with reference standard trolox, TEAC [5] | stability after simulated in vitro digestion [6] | other results |
| --- | --- | --- | --- | --- | --- |
| C[C@@H]1C[C@H]2[C@@H]3CCC4=CC(=O)C=C[C@]4(C)[C@@]3(F)[C@@H](O)C[C@]2(C)[C@@]1(O)C(=O)CO [Dex, dexamethasone] |  |  |  |  | pro-inflammatory activity, IL-8 release vs CTR− ([1]; 10 µM alone, without IL-1β): did not show any pro-inflammatory activity; inhibition of IL-8 release [1, 7]: ~66%; pro-inflammatory activity, NO release vs CTR− ([2]; 10 µM alone, without IL-1β): did not show any pro-inflammatory activity; inhibition of NO release [2, 7]: ~16%; pro-inflammatory activity, IL-6 release vs CTR− ([3]; 10 µM alone, without IL-1β): did not show any pro-inflammatory activity; IL-6 release with respect to positive control (CTR+) [3, 7]: statistically significant decrease (p < 0.001) |
| C[C@@H]1O[C@@H](OC[C@H]2O[C@@H](Oc3cc(O)c4c(c3)O[C@H](c3ccc(O)c(O)c3)CC4=O)[C@H](O)[C@@H](O)[C@@H]2O)[C@H](O)[C@H](O)[C@H]1O [Eriocitrin, eriodictyol-7-O-rutinoside] | 8.80 ± 0.03 | 9.05 ± 0.12 |  |  |  |
| COc1ccc(C2CC(=O)c3c(O)cc(O)cc3O2)cc1O (centres unmarked) [Hesperetin, 3′,5,7-trihydroxy-4′-methoxyflavanone] | 8.76 ± 0.22 | 9.38 ± 0.18 | a behavior comparable with the reference standard | stable after simulated in vitro digestion | anti-inflammatory activity less than the other tested molecules, protease inhibition (trypsin): about 4 times |
| COc1ccc([C@@H]2CC(=O)c3c(O)cc(O[C@@H]4O[C@H](CO[C@@H]5O[C@@H](C)[C@H](O)[C@@H](O)[C@H]5O)[C@@H](O)[C@H](O)[C@H]4O)cc3O2)cc1O [Hesperidin, hesperetin-7-O-rutinoside] | 9.86 ± 0.13 | 9.95 ± 0.04 | a behavior comparable with the reference standard | stable after simulated in vitro digestion |  |
| IL-1β: well-known pro-inflammatory agent used at 25 ng/mL to trigger inflammation (CTR+) |  |  |  |  | increase in IL-8 vs CTR− ([1]; 25 ng/mL): ~ 27 folds; increase in NO release vs CTR− ([2]; 25 ng/mL): ~ 2.5 folds; increase in IL-6 vs CTR− ([3]; 25 ng/mL): ~ 7 folds |
